What was measured:
Format in all cases: in vivo
Phakopsora pachyrhizi = test: Test D: Asian soybean rust, preventive spray on soybean seedlings; conditions: 100 = 100% disease control, 0 = no control; for pest or weed control at 50 ppm: Phakopsora pachyrhizi, 216 h, read-out: Test D disease control rating
Excerpt: (§1) General protocol for preparing test suspensions for Tests A-F: the test compounds were first dissolved in acetone in an amount equal to 3% of the final volume and then suspended at the desired concentration (in ppm) in acetone and purified water (50/50 mix by volume) containing 250 ppm of the surfactant PEG400 (polyhydric alcohol esters). The resulting test suspensions were then used in Tests A-F.
(§2) The test solution was sprayed to the point of run-off on soybean seedlings. The following day the seedlings were inoculated with a spore suspension of Phakopsora pachyrhizi (the causal agent of Asian soybean rust) and incubated in a saturated atmosphere at 22° C. for 24 h and then moved to a growth chamber at 22° C. for 8 days, after which time visual disease ratings were made.
(§3) A rating of 100 indicates 100% disease control and a rating of 0 indicates no disease control (relative to the controls). A dash (-) indicates the compound was not tested.

Botrytis cinerea = test: Test E: tomato Botrytis, preventive spray on tomato seedlings; conditions: 100 = 100% disease control, 0 = no control; for pest or weed control at 50 ppm: Botrytis cinerea, read-out: Test E disease control rating
Excerpt: as §1
(§4) The test suspension was sprayed to the point of run-off on tomato seedlings. The following day the seedlings were inoculated with a spore suspension of Botrytis cinerea (the causal agent of tomato Botrytis) and incubated in a saturated atmosphere at 20° C. for 48 h, and then moved to a growth chamber at 24° C. for 3 days, after which time visual disease ratings were made.
as §3

[1] = tested on: Puccinia recondita f. sp. tritici; test: Test B: wheat leaf rust, preventive spray on wheat seedlings; conditions: 100 = 100% disease control, 0 = no control; for pest or weed control at 50 ppm: Puccinia recondita, read-out: Test B disease control rating
Excerpt: as §1
as §2, with “on wheat” for “on soybean”, “of Puccinia recondita f. sp. tritici” for “of Phakopsora pachyrhizi”, “of wheat leaf” for “of Asian soybean”, “at 20°” for “at 22°”, “24 h,” for “24 h”, “for 7” for “for 8”
as §3

Alternaria solani = test: Test F: tomato early blight, preventive spray on tomato seedlings; conditions: 100 = 100% disease control, 0 = no control; for pest or weed control at 50 ppm: Alternaria solani, read-out: Test F disease control rating
Excerpt: as §1
as §4, with “Alternaria solani” for “Botrytis cinerea”, “early blight)” for “Botrytis)”, “27°” for “20°”, “20°” for “24°”
as §3

[2] = tested on: Blumeria graminis f. sp. tritici; test: Test C: wheat powdery mildew, preventive spray on wheat seedlings; conditions: 100 = 100% disease control, 0 = no control; for pest or weed control at 50 ppm: Blumeria graminis, read-out: Test C disease control rating
Excerpt: as §1
The test suspension was sprayed to the point of run-off on wheat seedlings. The following day the seedlings were inoculated with a spore dust of Blumeria graminis f. sp. tritici, (also known as Eysiphe graminis f. sp. tritici, the causal agent of wheat powdery mildew) and incubated in a growth chamber at 20° C. for 8 days, after which time visual disease ratings were made.
as §3

Zymoseptoria tritici = test: Test A: wheat leaf blotch, preventive spray on wheat seedlings; conditions: 100 = 100% disease control, 0 = no control; for pest or weed control at 50 ppm: Zymoseptoria tritici, read-out: Test A disease control rating
Excerpt: as §1
The test solution was sprayed to the point of run-off on wheat seedlings. The following day the seedlings were inoculated with a spore suspension of Zymoseptoria tritici (the causal agent of wheat leaf blotch) and incubated in a saturated atmosphere at 24° C. for 48 h, and then moved to a growth chamber at 20° C. for 17 days, after which time disease ratings were made.
as §3

SMILES	Test D disease control rating (Phakopsora pachyrhizi; 50 ppm) [%]	Test E disease control rating (Botrytis cinerea; 50 ppm) [%]	Test B disease control rating ([1]; 50 ppm) [%]	Test F disease control rating (Alternaria solani; 50 ppm) [%]	Test C disease control rating ([2]; 50 ppm) [%]	Test A disease control rating (Zymoseptoria tritici; 50 ppm) [%]	pest or weed control at 50 ppm (Phakopsora pachyrhizi; 50 ppm) [%]	pest or weed control at 50 ppm (Botrytis cinerea; 50 ppm) [%]	pest or weed control at 50 ppm ([1]; 50 ppm) [%]	pest or weed control at 50 ppm (Alternaria solani; 50 ppm) [%]	pest or weed control at 50 ppm ([2]; 50 ppm) [%]	pest or weed control at 50 ppm (Zymoseptoria tritici; 50 ppm) [%]	other results
COc1ccc(Cl)c(-c2cn(C)c(=O)cc2-c2ccccc2C(F)(F)F)c1 [Compound 70]	0	93	68	0	83	50							
Cn1cc(-c2cc(F)ccc2Cl)c(-c2ccc(F)cc2F)c(Cl)c1=O [Compound 40]	92	94	100	99	98	100							
COc1ccc(Cl)c(-c2cn(C)c(=O)c(C)c2-c2ccc(F)cc2Cl)c1 [Compound 43, 4-(2-chloro-4-fluorophenyl)-5-(2-chloro-5-methoxyphenyl)-1,3-dimethyl-2(1H)-pyridinone]							97	98	100	100	100	100	
COc1cc(OC)c(Cl)c(-c2cn(C)c(=O)c(Cl)c2-c2ccc(F)cc2Cl)c1 [Compound 4, 3-chloro-5-(2-chloro-3,5-dimethoxyphenyl)-4-(2-chloro-4-fluorophenyl)-1-methyl-2(1H)-pyridinone]							99	100	100	100	98	100	
COc1cc(OC)c(Cl)c(-c2cn(O)c(=O)c(Cl)c2-c2ccc(F)cc2Cl)c1 [Compound 39, 3-chloro-5-(2-chloro-3,5-dimethoxyphenyl)-4-(2-chloro-4-fluorophenyl)-1-hydroxy-2(1H)-pyridinone]							77	56	86	0	0	69	
C#CCOn1cc(-c2cc(OC)cc(OC)c2Cl)c(-c2ccc(F)cc2Cl)c(Cl)c1=O [Compound 36, 3-chloro-5-(2-chloro-3,5-dimethoxyphenyl)-4-(2-chloro-4-fluorophenyl)-1-(2-propynyloxy)-2(1H)-pyridinone]							96	96	99	0	0	98	
COc1ccc(F)c(-c2cn(C)c(=O)c(Cl)c2-c2ccc(F)cc2F)c1 [Compound 49]	73	96	100	100	0	100							
Cn1cc(-c2ccccc2Cl)c(-c2ccc(F)cc2F)c(Cl)c1=O [Compound 48]	77	96	99	96	72	99							
Cc1c(-c2cn(C)c(=O)c(Cl)c2-c2ccc(F)cc2Cl)cccc1[N+](=O)[O-] [Compound 54]	75	92	99	26	0	100							
COc1ccc(Cl)c(-c2cn(C)c(=O)c(Br)c2-c2ccc(F)cc2Cl)c1 [Compound 33, 3-bromo-4-(2-chloro-4-fluorophenyl)-5-(2-chloro-5-methoxyphenyl)-1-methyl-2(1H)-pyridinone]							89	100	100	100	99	100	
COc1ccc(Cl)c(-c2cn(C)c(=O)c(Cl)c2-c2ccc(C#N)cc2Cl)c1 [Compound 56]	97	96	100	99	98	100							
Cn1cc(-c2sccc2Cl)c(-c2ccc(F)cc2Cl)c(Cl)c1=O [Compound 55]	0	97	90	0	0	96							
COc1ccc(Cl)c(-c2cn(C)c(=O)c(Cl)c2-c2ccccc2C(F)(F)F)c1 [Compound 57]	44	90	99	0	64	98							
Cn1c(Cl)c(-c2ccc(F)cc2Cl)c(-c2c(F)cccc2F)c(Cl)c1=O [Compound 44]	96	40	93	0	79	98							
COc1cc(OC)c(Cl)c(-c2cn(OC(F)F)c(=O)c(Cl)c2-c2ccc(F)cc2Cl)c1 [Compound 38, 3-chloro-5-(2-chloro-3,5-dimethoxyphenyl)-4-(2-chloro-4-fluorophenyl)-1-(difluoromethoxy)-2(1H)-pyridinone]							75	96	100	0	73	96	
Cc1ccsc1-c1cn(C)c(=O)c(Cl)c1-c1ccc(F)cc1Cl [Compound 63]	0	88	80	0	0	84							
Cn1cc(-c2ccccc2Cl)c(-c2ccc(F)cc2Cl)c(Cl)c1=O [Compound 15]	0	88	100	0	69	100							
COc1ccc(Cl)c(-c2cn(C)c(=O)cc2-c2ccc(C#N)cc2Cl)c1 [Compound 59]	0	95	92	0	0	99							
CCOn1cc(-c2cc(OC)cc(OC)c2Cl)c(-c2ccc(F)cc2Cl)c(Cl)c1=O [Compound 46]													Test D disease control rating (Phakopsora pachyrhizi; 250 ppm): 99%; Test E disease control rating (Botrytis cinerea; 250 ppm): 88%; Test B disease control rating ([1]; 250 ppm): 100%; Test F disease control rating (Alternaria solani; 250 ppm): 47%; Test C disease control rating ([2]; 250 ppm): 92%; Test A disease control rating (Zymoseptoria tritici; 250 ppm): 99%

— patent US20240215577A1, “FUNGICIDAL PYRIDONES” (FMC Corporation, priority 2021, published 2024)
